Measurements taken from patent publication US20240018145A1, “[…]-DEPENDENT EN[…] TREATING OR […]” (priority 2020, published 2024).

Test system: FLU A (PR/8/34)
Experiment: Flu A Neuraminidase Antiviral Assay
Type: cell-based
Conditions: not given

Compared with CCN1C(=O)c2c(O)c(=O)cc(COC)n2N2C(c3ccccc3)C(CC(F)(F)F)CCC12 (centres unmarked) [Compound 131F, 5-ethyl-7-hydroxy-10-(methoxymethyl)-1-phenyl-2-(2,2,2-trifluoroethyl)-1,2,3,4,4a,5-hexahydrodipyrido[1,2-b:2′,1′-f][1,2,4]triazine-6,8-dione], CCN1C(=O)c2c(O)c(=O)ccn2N2C(c3ccccc3C)C(CC(F)(F)F)CCC12 (single isomer, unassigned) [Compound 93A, 5-ethyl-7-hydroxy-1-(o-tolyl)-2-(2,2,2-trifluoroethyl)-1,2,3,4,4a,5-hexahydrodipyrido[1,2-b:2′,1′-f][1,2,4]triazine-6,8-dione] is 38-fold higher in EC50: 12.5 nM for the first, 475 nM for the second. The first is the more potent here.

Going from CN1C(=O)c2c(O)c(=O)ccn2N2C(c3cc(F)ccc3OC(F)F)CCCC12 (single isomer, unassigned) [Compound 17A, 1-(2-(difluoromethoxy)-5-fluorophenyl)-7-hydroxy-5-methyl-1,2,3,4,4a,5-hexahydrodipyrido[1,2-b:2′,1′-f][1,2,4]triazine-6,8-dione] to CN1C(=O)c2c(O)c(=O)ccn2N2C(c3c(F)cccc3F)CCCC12 (single isomer, unassigned) [Compound 7A, 1-(2,6-difluorophenyl)-7-hydroxy-5-methyl-1,2,3,4,4a,5-hexahydrodipyrido[1,2-b:2′,1′-f][1,2,4]triazine-6,8-dione], the EC50 rises from 3510 nM to > 8100 nM.

Going from CN1C(=O)c2c(O)c(=O)ccn2N2C(c3ccccc3)C(CC(F)(F)F)CCC12 (single isomer, unassigned) [Compound 118B, 7-hydroxy-5-methyl-1-phenyl-2-(2,2,2-trifluoroethyl)-1,2,3,4,4a,5-hexahydrodipyrido[1,2-b:2′,1′-f][1,2,4]triazine-6,8-dione] to CN1C(=O)c2c(O)c(=O)ccn2N2C(c3ccc(F)cc3)C(CC(F)(F)F)CCC12 (single isomer, unassigned) [Compound 122B, 1-(4-fluorophenyl)-7-hydroxy-5-methyl-2-(2,2,2-trifluoroethyl)-1,2,3,4,4a,5-hexahydrodipyrido[1,2-b:2′,1′-f][1,2,4]triazine-6,8-dione], the EC50 rises from 3.1 nM to 5.2 nM (1.7-fold).

Compared with CCC1(c2ccccc2)CCCC2N(C)C(=O)c3c(O)c(=O)ccn3N21 (single isomer, unassigned) [Compound 22B, 1-ethyl-7-hydroxy-5-methyl-1-phenyl-1,2,3,4,4a,5-hexahydrodipyrido[1,2-b:2′,1′-f][1,2,4]triazine-6,8-dione], CC1CC2N(C)C(=O)c3c(O)c(=O)ccn3N2C(C)(c2ccccc2)C1 (single isomer, unassigned) [Compound 43A, 7-hydroxy-1,3,5-trimethyl-1-phenyl-1,2,3,4,4a,5-hexahydrodipyrido[1,2-b:2′,1′-f][1,2,4]triazine-6,8-dione] is 4.5-fold lower in EC50: 5290 nM for the first, 1170 nM for the second.

Compared with CN1C(=O)c2c(O)c(=O)ccn2N2C(c3ccccc3)CCCC12 (single isomer, unassigned) [Compound 1A, 7-hydroxy-5-methyl-1-phenyl-1,2,3,4,4a,5-hexahydrodipyrido[1,2-b:2′,1′-f][1,2,4]triazine-6,8-dione], CN1C(=O)c2c(O)c(=O)ccn2N2C(c3ccccc3)CCCC12C (single isomer, unassigned) [Compound 59A, 7-hydroxy-4a,5-dimethyl-1-phenyl-1,2,3,4,4a,5-hexahydrodipyrido[1,2-b:2′,1′-f][1,2,4]triazine-6,8-dione] is lower in EC50: > 8100 nM for the first, 7280 nM for the second. The second is the more potent here.

CCN1C(=O)c2c(O)c(=O)ccn2N2C(c3ccccc3)C(C3(C(F)(F)F)CC3)CCC12 (single isomer, unassigned) [Compound 104A, 5-ethyl-7-hydroxy-1-phenyl-2-(1-(trifluoromethyl)cyclopropyl)-1,2,3,4,4a,5-hexahydrodipyrido[1,2-b:2′,1′-f][1,2,4]triazine-6,8-dione] and CCN1C(=O)c2c(O)c(=O)ccn2N2C(c3ccccc3)C(CCC(F)F)CCC12 (single isomer, unassigned) [Compound 110B, 2-(3,3-difluoropropyl)-5-ethyl-7-hydroxy-1-phenyl-1,2,3,4,4a,5-hexahydrodipyrido[1,2-b:2′,1′-f][1,2,4]triazine-6,8-dione] are within 1.5-fold of each other in EC50: 8 nM for the first, 5.5 nM for the second.

Going from Cc1ccccc1C1C(CC(F)(F)F)CC(C)C2N(C)C(=O)c3c(O)c(=O)ccn3N12 (single isomer, unassigned) [Compound 79A, 7-hydroxy-4,5-dimethyl-1-(o-tolyl)-2-(2,2,2-trifluoroethyl)-1,2,3,4,4a,5-hexahydrodipyrido[1,2-b:2′,1′-f][1,2,4]triazine-6,8-dione] to COc1ccccc1C1C(CC(F)(F)F)CCC2N(C)C(=O)c3c(O)c(=O)ccn3N12 (single isomer, unassigned) [Compound 125A, 7-hydroxy-1-(2-methoxyphenyl)-5-methyl-2-(2,2,2-trifluoroethyl)-1,2,3,4,4a,5-hexahydrodipyrido[1,2-b:2′,1′-f][1,2,4]triazine-6,8-dione], the EC50 rises from 83.8 nM to 1020 nM (12-fold). The first is the more potent here.

First: CN1C(=O)c2c(O)c(=O)ccn2N2C1CCC1(CCCC(F)(F)C1)C2c1ccccc1 (single isomer, unassigned) [Compound 75B, 3,3-difluoro-7′-hydroxy-5′-methyl-1′-phenyl-3′,4′,4a′,5′-tetrahydro-1′H-spiro[cyclohexane-1,2′-dipyrido[1,2-b:2′,1′-f][1,2,4]triazine]-6′,8′-dione]
Second: CN1C(=O)c2c(O)c(=O)ccn2N2C1CCC1(CC(F)(F)C1)C2c1ccccc1 (single isomer, unassigned) [Compound 74A, 3,3-difluoro-7′-hydroxy-5′-methyl-1′-phenyl-3′,4′,4a′,5′-tetrahydro-1′H-spiro[cyclobutane-1,2′-dipyrido[1,2-b:2′,1′-f][1,2,4]triazine]-6′,8′-dione]
The EC50 of the first is lower: 8 nM for the first, > 810 nM for the second.

Compared with CN1C(=O)c2c(O)c(=O)ccn2N2C1CCCC2(C)c1cccc(F)c1 (single isomer, unassigned) [Compound 25A, 1-(3-fluorophenyl)-7-hydroxy-1,5-dimethyl-1,2,3,4,4a,5-hexahydrodipyrido[1,2-b:2′,1′-f][1,2,4]triazine-6,8-dione], CN1C(=O)c2c(O)c(=O)ccn2N2C(c3c(F)cccc3F)CCCC12 (single isomer, unassigned) [Compound 7B, 1-(2,6-difluorophenyl)-7-hydroxy-5-methyl-1,2,3,4,4a,5-hexahydrodipyrido[1,2-b:2′,1′-f][1,2,4]triazine-6,8-dione] is 73-fold higher in EC50: 3.5 nM for the first, 256 nM for the second.

First: CN1C(=O)c2c(O)c(=O)ccn2N2C(c3c(F)cccc3F)C(CC(F)(F)F)CCC12 (single isomer, unassigned) [Compound 123A, 1-(2,6-difluorophenyl)-7-hydroxy-5-methyl-2-(2,2,2-trifluoroethyl)-1,2,3,4,4a,5-hexahydrodipyrido[1,2-b:2′,1′-f][1,2,4] triazine-6,8-dione]
Second: Cc1cccc(F)c1C1C(CC(F)(F)F)CCC2N(C)C(=O)c3c(O)c(=O)ccn3N12 (single isomer, unassigned) [Compound 77A, 1-(2-fluoro-6-methylphenyl)-7-hydroxy-5-methyl-2-(2,2,2-trifluoroethyl)-1,2,3,4,4a,5-hexahydrodipyrido[1,2-b:2′,1′-f][1,2,4]triazine-6,8-dione]
The EC50 of the first is higher: > 8100 nM for the first, 3.3 nM for the second.

CN1C(=O)c2c(O)c(=O)ccn2N2C(c3ccccc3)C(c3ccc(F)c(F)c3F)CCC12 (single isomer, unassigned) [Compound 85B, 7-hydroxy-5-methyl-1-phenyl-2-(2,3,4-trifluorophenyl)-1,2,3,4,4a,5-hexahydrodipyrido[1,2-b:2′,1′-f][1,2,4]triazine-6,8-dione] and CN1C(=O)c2c(O)c(=O)ccn2N2C(c3ccccc3)C(c3cccc(F)c3F)CCC12 (single isomer, unassigned) [Compound 116B, 2-(2,3-difluorophenyl)-7-hydroxy-5-methyl-1-phenyl-1,2,3,4,4a,5-hexahydrodipyrido[1,2-b:2′,1′-f][1,2,4]triazine-6,8-dione] are within 1.5-fold of each other in EC50: 9.7 nM for the first, 6.9 nM for the second.

Going from CN1C(=O)c2c(O)c(=O)ccn2N2C(c3ccccc3)C(CCC3CC3)CCC12 (single isomer, unassigned) [Compound 115D, 2-(2-cyclopropylethyl)-7-hydroxy-5-methyl-1-phenyl-1,2,3,4,4a,5-hexahydrodipyrido[1,2-b:2′,1′-f][1,2,4]triazine-6,8-dione] to CN1C(=O)c2c(O)c(=O)ccn2N2C(c3ccccc3)C(C3CCC(F)(F)CC3)CCC12 (single isomer, unassigned) [Compound 84A, 2-(4,4-difluorocyclohexyl)-7-hydroxy-5-methyl-1-phenyl-1,2,3,4,4a,5-hexahydrodipyrido[1,2-b:2′,1′-f][1,2,4]triazine-6,8-dione], the EC50 rises from 6.9 nM to > 810 nM.

Compared with Cc1ccccc1C1C(CC2CC2(F)F)CCC2N(C)C(=O)c3c(O)c(=O)ccn3N12 (single isomer, unassigned) [Compound 88C], CN1C(=O)c2c(O)c(=O)ccn2N2C(c3ccccc3)C(CCC3CC3)CCC12 (single isomer, unassigned) [Compound 115B, 2-(2-cyclopropylethyl)-7-hydroxy-5-methyl-1-phenyl-1,2,3,4,4a,5-hexahydrodipyrido[1,2-b:2′,1′-f][1,2,4]triazine-6,8-dione] is higher in EC50: 4 nM for the first, > 8100 nM for the second. The first is the more potent here.

Same assay, conditions: MDCK, 48 h

Compared with CN1C(=O)c2c(O)c(=O)ccn2N2C1/C(=C/c1ccccc1)C[C@@H](O)[C@@]2(C)c1ccccc1 (stereo partly drawn) [Compound 149, (1R,2R)-4-((E)-benzylidene)-2,7-dihydroxy-1,5-dimethyl-1-phenyl-1,2,3,4,4a,5-hexahydrodipyrido[1,2-b:2′,1′-f][1,2,4]triazine-6,8-dione], CC(C)O[C@H]1CC[C@H]2N(C)C(=O)c3c(O)c(=O)ccn3N2[C@@H]1c1ccccc1 [Compound 155, (1R,2S,4aS)-7-hydroxy-2-isopropoxy-5-methyl-1-phenyl-1,2,3,4,4a,5-hexahydrodipyrido[1,2-b:2′,1′-f][1,2,4]triazine-6,8-dione] is lower in EC50: > 810 nM for the first, 185 nM for the second.

With CN1C(=O)c2c(O)c(=O)ccn2N2[C@H](c3ccccc3)[C@@H](N=[N+]=[N-])CC[C@@H]12 [Compound 139, (1R,2S,4aS)-2-azido-7-hydroxy-5-methyl-1-phenyl-1,2,3,4,4a,5-hexahydrodipyrido[1,2-b:2′,1′-f][1,2,4]triazine-6,8-dione] the EC50 was 23.6 nM.
